According to US20100286058A1, “Assessing Chemotherapy Resistance of Colorectal Tumors by Determining Sparc Hypermethylation” (priority 2007, published 2010):
Where “and” joins values, the source holds several entries; their conditions need not be identical. Equal values may be shown once. Entries after “also recorded” stand apart in the source; their conditions may differ.

Legend:
MIP 101 cells = assay: Cell viability (WST-1); type: cell-based; details: 24 h, read-out: viable cells
Experimental: (§1) Human colorectal cancer (CRC) cell lines, MIP 101, RKO, HCT116 and HT29 (ATCC), and a normal colon cell line CCD 112CON (ATCC), were maintained in DMEM supplemented with 10% fetal bovine serum; 1% Kanamycin, Streptomycin, Penicillin; and incubated at 37° C. and 5% CO2. To determine the effect of reversing the methylation status of SPARC, a demethylating agent (5-Aza-2′deoxycytidine, “5-Aza”) was added to the culture media at a final concentration of 4 μm for a period of 7 days with medium changes on day 4, before assessing its effect on cell viability (WST-1), apoptosis (Caspase 3/7 and TUNEL) and cell proliferation.
Cell viability was evaluated using WST-1 (Roche) following the manufacturer's instructions. Cells exposed to 5-Aza for a period of 7 days (and untreated controls) were seeded at 10,000 cells per well in triplicate into a 96-well plate. Twelve hours later, 5-Fluorouracil (5-FU) was added to a final concentration of 0, 500 or 1,000 μM for an additional 24 h. WST reagent was added to each well and incubated at 37° C. after which plates were read at 60 min at 440 nm. Three independent experiments were analyzed. The significance of differences were determined using Student's t-test (P<0.05).

SPARC [1] = assay: RT-PCR of SPARC mRNA; type: cell-based, Human; details: MIP101 cells exposed to 5-Aza
From the text: This technique is based on bisulfite treatment of the DNA, which modifies cytosines to uracil except when they are methylated (5-methylcytosine), followed by PCR. After bisulfite modification the DNA was amplified using methylation specific primers. Two primer sets, previously described, were used to target the CpG island located in the putative promoter region of the SPARC gene, and are referred as MSP1 and MSP2. Primers targeting INK4A(p16) were used as control. […] For RT-PCR, mRNA isolated from CRC cell lines were extracted using Trizol (Invitrogen). Primers to amplify SPARC, sense 5′-GGGAGGGCCTTGGCAG-3′ antisense 5′-GCACATGGGGGTGTTG-3′ and actin, sense 5′-GCCACGGCTGCTTCCAG-3′antisense 5′-GGCGTACAGGTCTTTGC-3′ were annealed at 49° C. in 45 cycles after reverse transcription for 1 hour at 50° C. Amplicons were separated in 2.5% agarose gel electrophoresis.

SPARC [2] = assay: Western blot of SPARC protein; type: cell-based, Human; details: MIP101 cells (printed MW101) exposed to 5-Aza
HCT 116 cells = assay: Cell proliferation (cell counts); type: cell-based, Human; details: incubated with 5-Aza, most noticeable after 2-days
Experimental: as §1
(§2) To determine the rate of cell proliferation, cells exposed to 5-Aza for 7 days (and untreated controls) were seeded at 20,000 cells/well into a 48-well plate. Cells were counted from duplicate wells at 24, 48 and 72 h. The effect of 5-FU exposure for 24 hour-period on cell proliferation in the presence or absence of 5-Aza was also determined. We performed two independent experiments.

HT29 cells = assay: Cell proliferation (cell counts); type: cell-based, Human; details: incubated with 5-Aza, most noticeable after 2-days
Experimental: as §1, §2

RKO cells = assay: Cell proliferation (cell counts); type: cell-based, Human
Experimental: as §1, §2

MIP101 cells = assay: Cell proliferation (cell counts); type: cell-based, Human
Experimental: as §1, §2

[3] = molecular target: T1, interaction between Dnmtl and the SPARC promoter (Homo sapiens, UniProt P26358); assay: Chromatin immunoprecipitation (ChIP) assay; type: cell-based; details: all CRC cell lines, following exposure to 5-Aza
T1 construct: endogenous in cells
T1 sequence (P26358 whole entry): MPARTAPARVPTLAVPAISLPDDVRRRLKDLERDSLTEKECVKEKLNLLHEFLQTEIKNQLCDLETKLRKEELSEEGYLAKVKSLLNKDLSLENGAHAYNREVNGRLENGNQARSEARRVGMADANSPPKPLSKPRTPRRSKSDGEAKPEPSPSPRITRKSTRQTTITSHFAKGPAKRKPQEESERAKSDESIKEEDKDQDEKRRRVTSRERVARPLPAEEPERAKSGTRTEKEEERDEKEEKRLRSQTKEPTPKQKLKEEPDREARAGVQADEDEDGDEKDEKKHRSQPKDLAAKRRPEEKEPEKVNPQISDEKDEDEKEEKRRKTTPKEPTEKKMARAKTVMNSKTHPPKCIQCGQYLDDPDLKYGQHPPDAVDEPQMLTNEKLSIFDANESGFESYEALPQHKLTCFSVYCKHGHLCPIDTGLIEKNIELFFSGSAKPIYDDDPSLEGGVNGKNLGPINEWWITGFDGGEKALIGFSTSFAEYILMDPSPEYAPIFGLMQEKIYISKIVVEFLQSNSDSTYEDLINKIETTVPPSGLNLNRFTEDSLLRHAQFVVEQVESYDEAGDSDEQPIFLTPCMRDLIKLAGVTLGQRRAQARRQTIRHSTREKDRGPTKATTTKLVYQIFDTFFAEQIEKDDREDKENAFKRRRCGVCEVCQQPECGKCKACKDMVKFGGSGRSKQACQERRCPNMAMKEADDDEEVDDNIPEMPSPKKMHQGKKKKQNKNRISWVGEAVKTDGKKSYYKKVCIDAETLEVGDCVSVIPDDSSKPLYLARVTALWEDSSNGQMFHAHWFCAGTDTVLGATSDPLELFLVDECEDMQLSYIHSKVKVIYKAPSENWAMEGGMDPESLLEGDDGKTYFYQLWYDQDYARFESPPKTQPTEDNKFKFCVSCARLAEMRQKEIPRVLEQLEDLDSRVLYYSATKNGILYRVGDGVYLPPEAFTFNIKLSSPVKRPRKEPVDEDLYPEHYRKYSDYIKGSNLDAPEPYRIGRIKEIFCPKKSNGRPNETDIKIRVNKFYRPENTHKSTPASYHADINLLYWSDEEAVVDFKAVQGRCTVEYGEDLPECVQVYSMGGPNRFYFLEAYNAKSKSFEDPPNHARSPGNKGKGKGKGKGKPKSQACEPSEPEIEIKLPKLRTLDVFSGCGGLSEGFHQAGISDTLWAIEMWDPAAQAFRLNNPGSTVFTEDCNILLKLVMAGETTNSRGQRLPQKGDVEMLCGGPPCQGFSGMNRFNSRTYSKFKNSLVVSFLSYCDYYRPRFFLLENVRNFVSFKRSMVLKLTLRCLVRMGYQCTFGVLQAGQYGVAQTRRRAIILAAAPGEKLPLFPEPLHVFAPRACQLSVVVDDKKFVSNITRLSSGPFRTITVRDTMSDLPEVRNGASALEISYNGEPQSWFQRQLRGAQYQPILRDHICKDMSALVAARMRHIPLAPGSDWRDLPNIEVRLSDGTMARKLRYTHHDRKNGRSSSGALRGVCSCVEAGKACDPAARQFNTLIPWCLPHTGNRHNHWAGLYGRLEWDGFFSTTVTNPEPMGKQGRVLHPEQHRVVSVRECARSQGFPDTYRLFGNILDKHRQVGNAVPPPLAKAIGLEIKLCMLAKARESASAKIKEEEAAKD
Experimental: To evaluate the effect of 5-Aza exposure on the interaction between Dnmtl (a DNA methyltranferase) with the promoter region of SPARC, a ChIP assay was performed using a ChIP kit (Epigentek) as per the manufacturer's instructions. Cells were fixed with formaldehyde for protein/DNA crosslinking and lysed. The DNA was sheared by sonication (10 pulses, […]) and added to a well coated with the antibody to the protein of interest (anti-Dnmtl, cat. #A-1001, Epigentek). Washes were performed to remove unbound material, while Dnmtl-bound DNA was released by protein digestion with proteinase K. The DNA was purified through a column and PCR was performed using primers designed to target the SPARC promoter region.

SPARC promoter = assay: Methylation specific PCR of CRC cell lines; type: cell-based, Human; details: 4 μM 5-Aza, 7 days in vitro; all four CRC cell lines (MIP101, RKO, HCT116, HT29)
Experimental: as §1
This technique is based on bisulfite treatment of the DNA, which modifies cytosines to uracil except when they are methylated (5-methylcytosine), followed by PCR. After bisulfite modification the DNA was amplified using methylation specific primers. Two primer sets, previously described, were used to target the CpG island located in the putative promoter region of the SPARC gene, and are referred as MSP1 and MSP2. Primers targeting INK4A(p16) were used as control. […] For RT-PCR, mRNA isolated from CRC cell lines were extracted using Trizol (Invitrogen). […]

INK4A(p16) promoter = assay: Methylation specific PCR of CRC cell lines (control promoter); type: cell-based, Human; details: 4 μM 5-Aza, 7 days in vitro; all four CRC cell lines

Row | SMILES | viability at 500 µM (MIP 101 cells; Homo sapiens, 500 μM 5-FU only) [%] | viability at 1000 µM (MIP 101 cells; Homo sapiens, 1,000 μM 5-FU only) [%] | SPARC RNA expression (RT-PCR) (SPARC [1]) | SPARC protein expression (Western blot) (SPARC [2]) | cell proliferation (HCT 116 cells) | cell proliferation (HT29 cells) | increase in cell doubling time (RKO cells; 4 μM 5-Aza vs control) | doubling time (RKO cells; incubation with 4 μM 5-Aza (control 0.7 days)) [days] | increase in cell doubling time (MIP101 cells; 4 μM 5-Aza vs control) [fold] | doubling time (MIP101 cells; incubation with 4 μM 5-Aza (control 0.8 days)) [days] | interaction between the SPARC promoter and Dnmtl (ChIP) [3] | methylation status in the MSP1 and MSP2 regions of the SPARC promoter (SPARC promoter) | methylation status of the INK4A(p16) promoter (INK4A(p16) promoter)
1 | O=c1[nH]cc(F)c(=O)[nH]1 [5-FU, 5-Fluorouracil] | 87.7 | 82.7 | – | – | – | – | – | – | – | – | – | – | –
2 | Nc1ncn([C@H]2C[C@H](O)[C@@H](CO)O2)c(=O)n1 [5-Aza, 5-Aza-2′deoxycytidine] | – | – | higher SPARC expression; also recorded: reactivation of SPARC RNA and protein expression | reactivation of SPARC RNA and protein expression | less dramatic yet significant decrease in cell proliferation | less dramatic yet significant decrease in cell proliferation | 2.4 fold and 2.43 fold | 1.7 | 3 | 2.4 | no longer observed | change in the methylation status | change in the methylation status
